pIC50: −log10 of the molar value.
Assays:
[1] = biological target: T1, Hepatocyte growth factor receptor (Homo sapiens, UniProt P08581); assay: Inhibition of wild type N-terminal NH-tagged and avi-tagged dephosphorylated c-MET (956 to 1390 residues) (unknown origin) expressed in sf21 cells using poly (Glu,Tyr) as substrate measured after 60 mins by ADP-Glo kinase assay
[2] = biological target: T2, Hepatocyte growth factor receptor (Homo sapiens, UniProt P08581, D1228V); assay: Inhibition of N-terminal NH-tagged and avi-tagged dephosphorylated c-MET D1228V mutant (956 to 1390 residues) (unknown origin) expressed in sf21 cells using poly (Glu,Tyr) as substrate measured after 60 mins by ADP-Glo kinase assay
[3] = biological target: T1, Hepatocyte growth factor receptor; assay: Inhibition of c-Met phosphorylation at Tyr 1234/Tyr1235 residues in human NCI-H1993 cells incubated for 4 hrs by HTRF assay; assay type: cell-based
[4] = biological target: T2, Hepatocyte growth factor receptor; assay: Inhibition of c-MET D1228V mutant phosphorylation at Tyr1234/Tyr1235 residues in CRISPR/Cas9 modified human NCI-H1993 cells incubated for 4 hrs by HTRF assay; assay type: cell-based
NCI-H1993 [5] = assay: Growth inhibition of wild type human NCI-H1993 cells incubated for 3 days by cell titer-glo luminescent cell viability assay; assay type: functional; conditions: NCI-H1993, 72 h
NCI-H1993 [6] = assay: Growth inhibition of CRISPR/Cas9 modified human NCI-H1993 cells harboring cMET D1228V mutant incubated for 3 days by cell titer-glo luminescent cell viability assay; assay type: functional; conditions: NCI-H1993, 72 h
NCI-H1993 [7] = assay: Resistance index, ratio of GI50 for CRISPR/Cas9 modified human NCI-H1993 cells harboring cMET D1228V mutant to GI50 for wild type human NCI-H1993 cells by cell-titer glo luminescent cell viability assay; assay type: functional

Row | SMILES | pIC50 [1] | pIC50 [2] | pIC50 [3] | pIC50 [4] | GI50 (NCI-H1993 [5]) [nM] | GI50 (NCI-H1993 [6]) [µM] | RatioGI50 (NCI-H1993 [7])
1 | CCOc1ccn(-c2ccc(F)cc2)c(=O)c1C(=O)Nc1ccc(Oc2ccnc(N)c2Cl)c(F)c1 [BMS-777607] | > 8.60 | > 8.60 | 6.67 to 7.91 | 6.67 to 7.91 | – | – | –
2 | COc1cc2c(Oc3ccc(NC(=O)C4(C(=O)Nc5ccc(F)cc5)CC4)cc3F)ccnc2cc1OCCCN1CCOCC1 [FORETINIB] | – | – | – | – | 61.7 | 0.0525 | –
3 | C[C@@H](c1ccc2nccn2c1)n1nnc2ncc(-c3cnn(C)c3)nc21 [SAVOLITINIB] | > 8.60 | 6.17 | 8.70 | < 4.50 | 9.33 | 8.32 | > 800

— ChEMBL document CHEMBL4364342, “Structural and Molecular Insight into Resistance Mechanisms of First Generation cMET Inhibitors” (ACS Med Chem Lett, 2019)
